The values below come from ChEMBL document CHEMBL4680261, “DDX3X inhibitors, an effective way to overcome HIV-1 resistance targeting host proteins” (Eur J Med Chem, 2020).

In data set [1] the test system is Human immunodeficiency virus 1. Put plainly: Antiviral activity against HIV-1 NL4-3 infected in human TZM-bl cells infected with supernatants from virus-infected human H9 cells treated with compound for 72 hrs assessed as reduction in luciferase expression measured after 48 hrs by luciferase reporter gene assay based BiCycle assay. The format is functional, organism-based. Conditions: Human immunodeficiency virus 1, NL4-3; call rule not given here.

Data set [2] has as its target ATP-dependent RNA helicase DDX3X (Homo sapiens, UniProt O00571). Put plainly: Inhibition of human DDX3X using dsRNA as substrate measured every 30 sec for 40 mins by FRET assay.
Data set [3] can be described thus: Apparent permeability of compound incubated for 5 hrs by PAMPA assay. It counts as ADME.
The nature of data set [4]: Metabolic stability in human liver microsomes assessed as parent compound remaining measured after 60 mins by LC-UV-MS analysis. Conditions: read-out: Stabilty. It counts as ADME, Microsome.

Chain of ATP-dependent RNA helicase DDX3X (O00571 whole entry): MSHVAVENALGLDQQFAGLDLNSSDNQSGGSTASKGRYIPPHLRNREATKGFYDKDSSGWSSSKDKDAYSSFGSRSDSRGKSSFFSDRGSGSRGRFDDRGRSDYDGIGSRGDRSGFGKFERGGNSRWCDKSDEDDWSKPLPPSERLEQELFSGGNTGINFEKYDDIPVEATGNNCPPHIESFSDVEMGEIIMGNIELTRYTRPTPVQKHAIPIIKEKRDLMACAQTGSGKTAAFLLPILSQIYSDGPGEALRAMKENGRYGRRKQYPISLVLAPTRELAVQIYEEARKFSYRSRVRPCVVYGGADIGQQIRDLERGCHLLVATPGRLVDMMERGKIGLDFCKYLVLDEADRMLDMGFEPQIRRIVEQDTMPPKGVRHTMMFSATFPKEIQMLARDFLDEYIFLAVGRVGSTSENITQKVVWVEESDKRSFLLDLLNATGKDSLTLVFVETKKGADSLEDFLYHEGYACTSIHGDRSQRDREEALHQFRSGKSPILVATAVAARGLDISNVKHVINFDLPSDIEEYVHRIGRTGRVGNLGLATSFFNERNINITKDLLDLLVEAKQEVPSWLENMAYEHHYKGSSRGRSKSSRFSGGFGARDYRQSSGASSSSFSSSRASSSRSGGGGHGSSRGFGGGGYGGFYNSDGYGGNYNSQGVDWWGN

On to `CCCCc1cn(-c2ccc(NC(=O)Nc3ccccc3C)cc2)nn1`, for which the concentration for half-maximal inhibition (IC50) in data set [1] was 1110 nM.
Take `CCCCc1cn(-c2ccc(NC(=O)Nc3cc(O[C@H]4O[C@@H](CO)[C@H](O)[C@@H]4O)ccc3C)cc2)nn1`: the half-maximal inhibitory concentration (IC50) in data set [1] is over 50000 nM; in data set [2] it was “Not Active”.
As to `CCOP(=O)(OCC)OCCc1cn(-c2ccc(NC(=O)Nc3ccccc3C)cc2)nn1`, the IC50 in data set [1] is over 50000 nM. Also, in data set [3], the Papp at 5 h turned out to be 0.72 ×10⁻⁶ cm/s. Further, the remaining at 1 h in data set [4] was found to be 53.7%.
`CCCCc1cn(-c2ccc(NC(=O)Nc3cc(O)ccc3C)cc2)nn1`: the 50% inhibitory concentration (IC50) in data set [2] (read-out: IC50) worked out at 490 nM.
For the compound `CCCCc1cn(-c2ccc(NC(=O)Nc3cc(OCOC)ccc3C)cc2)nn1`, the IC50 in data set [2] (read-out: IC50) came out at 820 nM.
For `CCCCc1cn(-c2ccc(NC(=O)Nc3cc(OC4CCCC4)ccc3C)cc2)nn1`, the IC50 in data set [1] was 200 nM; in data set [2] (read-out: IC50), 140 nM. Further, in data set [3], the apparent permeability coefficient (Papp) at 5 h was 1.96 ×10⁻⁶ cm/s. In data set [4], the remaining at 1 h came out at 92.5%.
`Cc1ccccc1NC(=O)Nc1ccc(-n2cc(CCN3CCOCC3)nn2)cc1`: in data set [2] (read-out: IC50), the concentration for half-maximal inhibition (IC50) was 59700 nM.
Regarding `CCCCc1cn(-c2ccc(NC(=O)Nc3cccc4cnccc34)cc2)nn1`, the values for the IC50 in data set [1] and in data set [2] (read-out: IC50) were 2200 nM and 150 nM, respectively. Besides, in data set [3], the apparent permeability coefficient (Papp) at 5 h was under 0.1 ×10⁻⁶ cm/s. In addition, the remaining at 1 h in data set [4] stood at 95.2%.
In the case of `Cc1ccccc1NC(=O)Nc1ccc(-n2cc(CN3CCOCC3)nn2)cc1`, the half-inhibitory concentration (IC50) entry in data set [2] was “Not Active”.
Take `Cc1ccccc1NC(=O)Nc1ccc(-n2cc(CCCN3CCOCC3)nn2)cc1`: the IC50 in data set [2] (read-out: IC50) was 53800 nM.
